In patent US20050277617A1, “Drugs against articular failure” (KABUSHIKI KAISHA HAYASHIBARA SEIBUTSU KAGAKU KENKYUJO, priority 2000, published 2005):

System: arthritis induced rat
Assay: Arthritis induced by type II collagen immunization in rats; increasing rate of hind foot volume
Format: in vivo
Conditions: for Enhancement of the alleviation effect of amino sugars on arthritis: Experiment 3, saccharide used instead of trehalose in the design of Experiment 1; for Judgment (symbol) of the effect of alleviating arthritis / Relative value of the average of increasing rate of hind foot volume when the average in the control group was regarded as 100: Experiment 1, daily until day 24, GlcN or GlcNAc 100, Ch4S 50, Trehalose 200 mg/kg body weight/day, female Lewis rats
Text: Thirty-six female Lewis rats, aged 6-weeks, were divided into 12 groups consisting of three rats per group. Glucosamine, N-acetylglucosamine, chondroitin 4-sulfate, and crystalline hydrous trehalose, which were all in a reagent grade, and designated as “test compounds” hereinafter), were respectively dissolved in phosphate buffer saline (described as “PBS” hereinafter), and intraperitoneally injected alone or in an appropriate combination daily to the rats of the group Nos. 1 to 11 at the doses in the following Table 2. As a control, PBS was administrated daily to each rat of the group No. 12 at a dose of 1 ml per day by the same administration route as above. Hereinafter, the day number means a day counted from the starting day of administration. In accordance with the method of inducing arthritis by type II collagen immunization described by K. Terato, in “Biomedical research”, Vol. 3, pp. 495-505, 1982, on day 3, 800 μg/head of a type II collagen from bovine in a reagent grade along with Freund's incomplete adjuvant was administered to the dorsal subcutaneous; and on day 10, a fresh preparation of the same collagen and adjuvant as used above were administered at a dose of about 1/10 of that of on day 3. Test compounds were administered to the rats daily until day 24.
During the term of the above experiment, on day 3 just before the administration of collagen and on day 24 just after the administration of the test compounds, both hind foot volumes of every rat were measured according to the method described by D. T. Walz in “Journal of Experimental Therapy”, Vol. 152, pp. 116-121, 1971. Increasing rate (%) of the total hind foot volume of each rat was calculated by substituting the data for the Formula 1 below. Increasing rate of hind foot volume (%)=[{(Measured volume on day 24)−(Measured volume on day 3)}/(Measured volume on day 3)]×100 Formula 1
The effect of alleviating arthritis for each test compound was judged on the basis of the criterion described in the following Table 1, after calculating the averages of increased rates of hind foot volumes in the rats of the group Nos. 1 to 11 and the relative values of the above averages when the average in the control group was regarded as 100. The results are in Table 2
As a result, the effect of glucosamine or N-acetylglucosamine with trehalose was judged as high (symbol “+”) even with the tested minimum amount of 5 mg/kg body weight/day. […]

Molecule | Enhancement of the alleviation effect of amino sugars on arthritis | Judgment (symbol) of the effect of alleviating arthritis (intraperitoneal) | Relative value of the average of increasing rate of hind foot volume when the average in the control group was regarded as 100 (intraperitoneal) | further results
OC[C@@H](O)[C@@H](O)[C@H](O)[C@@H](O)CO [sorbitol] | no enhanced effect | – | – | –
OC[C@H]1O[C@@H](O[C@H]2O[C@H](CO)[C@@H](O)[C@H](O)[C@H]2O)[C@H](O)[C@@H](O)[C@@H]1O [neotrehalose] | no enhanced effect | – | – | –
OC[C@@H](O)[C@@H](O[C@H]1O[C@H](CO)[C@@H](O)[C@H](O)[C@H]1O)[C@H](O)[C@@H](O)CO [maltitol] | no enhanced effect | – | – | –
COc1ccc2c(c1)c(CC(=O)O)c(C)n2C(=O)c1ccc(Cl)cc1 [indomethacin] | – | – | – | Increasing rate of hind foot volume (3 mg/kg body weight, some rats, data not shown): < 20%
OC[C@H]1O[C@H](O[C@H]2O[C@H](CO)[C@@H](O)[C@H](O)[C@H]2O)[C@H](O)[C@@H](O)[C@@H]1O [Trehalose, trehalose] | – | − (67 or more) | 98 | Increasing rate of hind foot volume compared with the control group (Experiment 1, group No. 6, trehalose alone 200 mg/kg body weight/day, intraperitoneal): No difference
chondroitin 4-sulfate [Ch4S] | – | − (67 or more) | 95 | –
CC(=O)N[C@H]1C(O)O[C@H](CO)[C@@H](O)[C@@H]1O (some centres unmarked) [GlcNAc, N-acetylglucosamine] | – | − (67 or more) | 89 | –
N[C@H]1C(O)O[C@H](CO)[C@@H](O)[C@@H]1O (some centres unmarked) [GlcN, glucosamine] | – | − (67 or more) | 88 | –
OC[C@H]1O[C@H](O[C@H]2[C@H](O)[C@@H](O)C(O)O[C@@H]2CO)[C@H](O)[C@@H](O)[C@@H]1O (mixture of isomers) [maltose] | no enhanced effect | – | – | –
